Where two headings read alike, the source gives them in different places.

Test [1] concerns the target T1, MraYAA (phospho-MurNAc-pentapeptide translocase, MraY) (Aquifex aeolicus, UniProt O66465).
T1 construct: Codon-optimized His-MBP-PreScission fusion, E. coli C41(DE3), DDM-extracted, tag cleaved; IC50 on MraYAA alone (NB7 only in crystals)
T1 sequence (O66465 1-359): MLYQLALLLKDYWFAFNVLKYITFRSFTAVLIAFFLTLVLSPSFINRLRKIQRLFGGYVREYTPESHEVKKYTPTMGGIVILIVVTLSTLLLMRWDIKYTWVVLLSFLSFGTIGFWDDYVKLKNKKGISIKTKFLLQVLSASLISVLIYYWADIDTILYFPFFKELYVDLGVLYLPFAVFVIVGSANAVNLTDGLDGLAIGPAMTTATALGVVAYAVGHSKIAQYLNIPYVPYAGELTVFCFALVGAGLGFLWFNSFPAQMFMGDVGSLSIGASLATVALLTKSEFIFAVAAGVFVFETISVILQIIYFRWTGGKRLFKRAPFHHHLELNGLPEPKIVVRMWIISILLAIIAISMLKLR
In words: X-ray crystal structure ([…] Å); UMP-Glo enzyme inhibition IC50. The format is biochemical.

The target of test [2] is T1, MraYAA (phospho-MurNAc-pentapeptide translocase, MraY). The description is as above. The format is biochemical. The source holds these as a separate data set.

Consider `CSCC[C@H](NC(=O)N[C@@H](Cc1cccc(O)c1)C(=O)O)C(=O)N[C@H](C(=O)N/C=C1/O[C@@H](n2ccc(=O)[nH]c2=O)[C@H](O)[C@@H]1O)[C@H](C)N(C)C(=O)[C@@H](N)Cc1cccc(O)c1` [3′-hydroxymureidomycin A], for which the IC50 in test [1] amounted to 0.052 µM.

Regarding `CO[C@H]1[C@@H](O)[C@H](n2ccc(=O)[nH]c2=O)O[C@@H]1[C@@H](O[C@H]1OC(C(=O)N[C@H]2CCCCNC2=O)=C[C@H](O)[C@@H]1O)C(N)=O` [capuramycin], 0.185 µM corresponded to half-maximal inhibition in test [2] (IC50).

As a reminder, the IC50 is the concentration that inhibits the measured activity by half. The low end stands for greater potency in that assay, the high end for weaker potency in that assay.

For the origin of these results see article PMC6606608, “Chemical logic of MraY inhibition by antibacterial nucleoside natural products” (Nature Communications, 2019).
